Measured values published in patent US7488481B2, “Polypeptides derived from anti-HIV-1 gp120 antibodies that abrogate gp120 binding to CCR5” (priority 2003, dated 2009).
Ends that are not written are not given here. * marks the point of attachment. SO3H = O=S(=O)(O)*

Experiments:
[1] = tested on: interaction between gp120 and CCR5; assay: Effectiveness of peptides based upon E51
ADA gp120 = assay: Peptide competition of scFv association with ADA gp120 and CD4-Ig; type: binding, HIV-1; conditions: scFv of sulfated antibodies
Experimental: Radiolabeled single-chain antibody constructs (scFv) were incubated with radiolabeled gp120 of the ADA isolate in the presence and absence of soluble CD4. […] Ratios of gp120 precipitated in the presence and absence of soluble CD4 were calculated by densitometry. Radiolabeled scFv was incubated with ADA gp120 and CD4-Ig in the presence of peptide buffer (buffer only), an unsulfated peptide derived from the first 22 residues of the CCR5 amino-terminus (c22), a peptide derived from the first 22 residues of the CCR5 amino-terminus in which tyrosines 10 and 14 are sulfated (s22), or a peptide derived from residues 7-28 of the C5a receptor sulfated at the tyrosines corresponding to residues 11 and 14 of the C5a receptor (c5aR-s22).

[2] = tested on: association of gp120 with CCR5; conditions: peptides previously characterized; cited from earlier work

Row | Substance | effectiveness compared with the longer sequence SEQ ID NO:4 [1] | effect of peptide on association of scFv with ADA gp120 (ADA gp120) | effect of peptide on the association of gp120 with CCR5 [2]
1 | GDYADYDGGYYYDMD (listed as Homo sapiens) [SEQ ID NO:3, shorter peptide based upon E51] | just as effective as the longer sequence |  | 
2 | c5aR-s22: peptide from residues 7-28 of the C5a receptor sulfated at tyrosines 11 and 14 |  | very modest inhibition | did not have a noticeable effect
3 | c22: unsulfated peptide derived from the first 22 residues of the CCR5 amino-terminus (MDYQVSSPIYDINYYTSEPCQK; UniProt P51681 1-22, looked up, fragment) |  | no significant effect | 
4 | s22: peptide from the first 22 residues of the CCR5 amino-terminus in which tyrosines 10 and 14 are sulfated (MDYQVSSPIY(SO3H)DINY(SO3H)YTSEPCQK) |  | inhibited | 
